Laboratory results as given in the supplement of paper PMC10627819.

Key:
[1] = test system: S. aureus Newman; test: Bliss interaction score (quartile over a dose matrix) (fitness difference); higher = more antagonism (negative = synergy)
Procedure, shortened: (§1)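 Fitness was OD595 at entry into stationary phase divided by the plate's robust no-drug mean and capped at 1; single-drug fitness was inferred from combination data. The Bliss score is observed minus expected (product) fitness, summarised by quartiles over technical, biological and donor/recipient replicates.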

[2] = test system: S. aureus DSM 20231; test: as above
Procedure, shortened: as §1

[3] = test system: S. pneumoniae D39V; test: as above
Procedure, shortened: as §1

[4] = test system: B. subtilis 168; test: as above
Procedure, shortened: as §1

[5] = test system: S. pneumoniae D39V; test: fitness (endpoint OD595 vs no drug) (fraction); higher = more growth
Procedure, shortened: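 In 384-well plates at 37 °C, cultures began at OD595 0.01 in 30 µl, with 55 µl used for S. pneumoniae. OD595 readings every 30 min for 14 h were corrected by the first reading. Fitness divides the stationary-phase transition optical density by the robust mean of no-drug control wells. The result is capped at 1.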
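For Bliss interaction score (quartile over a dose matrix) in this document: first quartile when negative (synergy) and third quartile when positive (antagonism).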

CC[C@H]1OC(=O)[C@H](C)[C@@H](O[C@H]2C[C@@](C)(OC)[C@@H](O)[C@H](C)O2)[C@H](C)[C@@H](O[C@@H]2O[C@H](C)C[C@H](N(C)C)[C@H]2O)[C@](C)(OC)C[C@@H](C)C(=O)[C@H](C)[C@@H](O)[C@]1(C)O [Clarithromycin] + CN[C@@H]1[C@H](O)[C@H](NC)[C@H]2O[C@@]3(O)C(=O)C[C@@H](C)O[C@H]3O[C@@H]2[C@H]1O [Spectinomycin]
Conditions	Bliss interaction score
[1]	-0.181
[2]	-0.142
[3]	-0.0344
[4]	-0.0725

fitness, [5], one replicate
Conditions	first compound 0.007812 µg/mL	first compound 0.01562 µg/mL	first compound 0.03125 µg/mL	first compound 0.0625 µg/mL	first compound 0.125 µg/mL	first compound 0.25 µg/mL
partner 4 µg/mL	0.836	0.755	0.669	0.725	0.326	0.156
partner 8 µg/mL	0.741	0.72	0.658	0.676	0.221	0.114
partner 16 µg/mL	0.644	0.664	0.528	–	–	–

fitness, [5]
Conditions	first compound 0.07 µg/mL	first compound 0.14 µg/mL	first compound 0.28 µg/mL
partner 4 µg/mL	0.138	0.0851	0.0564
partner 8 µg/mL	0.138	0.0752	0.0774
partner 16 µg/mL	0.114	0.0949	0.0947

CC[C@H]1OC(=O)[C@H](C)[C@@H](O[C@H]2C[C@@](C)(OC)[C@@H](O)[C@H](C)O2)[C@H](C)[C@@H](O[C@@H]2O[C@H](C)C[C@H](N(C)C)[C@H]2O)[C@](C)(OC)C[C@@H](C)C(=O)[C@H](C)[C@@H](O)[C@]1(C)O [Clarithromycin] + CN[C@@H]1[C@H](O[C@H]2[C@H](O[C@H]3[C@H](O)[C@@H](O)[C@H](N=C(N)N)[C@@H](O)[C@@H]3N=C(N)N)O[C@@H](C)[C@]2(O)C=O)O[C@@H](CO)[C@H](O)[C@H]1O [Streptomycin]
Conditions	Bliss interaction score
[1]	-0.0521
[2]	0.0696
[3]	-0.0538
[4]	0.0553

fitness, [5], one replicate
Conditions	first compound 0.007812 µg/mL	first compound 0.01562 µg/mL	first compound 0.03125 µg/mL	first compound 0.0625 µg/mL	first compound 0.125 µg/mL	first compound 0.25 µg/mL
partner 2 µg/mL	0.857	0.802	0.663	0.68	0.318	0.129
partner 4 µg/mL	0.866	0.799	0.694	–	–	–
partner 8 µg/mL	0.845	0.793	0.651	–	–	–
partner 16 µg/mL	–	–	–	0.478	0.184	0.0864

fitness, [5]
Conditions	first compound 0.0625 µg/mL	first compound 0.07 µg/mL	first compound 0.125 µg/mL	first compound 0.14 µg/mL	first compound 0.25 µg/mL	first compound 0.28 µg/mL
partner 2 µg/mL	–	0.117	–	0.0741	–	0.0426
partner 4 µg/mL	0.623	0.103	0.3	0.0646	0.142	0.0455
partner 8 µg/mL	0.594	0.154	0.312	0.0691	0.107	0.0723

CC[C@H]1OC(=O)[C@H](C)[C@@H](O[C@H]2C[C@@](C)(OC)[C@@H](O)[C@H](C)O2)[C@H](C)[C@@H](O[C@@H]2O[C@H](C)C[C@H](N(C)C)[C@H]2O)[C@](C)(OC)C[C@@H](C)C(=O)[C@H](C)[C@@H](O)[C@]1(C)O [Clarithromycin] + CN[C@H](CC(C)C)C(=O)N[C@H]1C(=O)N[C@@H](CC(N)=O)C(=O)N[C@H]2C(=O)N[C@H]3C(=O)N[C@H](C(=O)N[C@H](C(=O)O)c4cc(O)cc(O)c4-c4cc3ccc4O)[C@H](O)c3ccc(c(Cl)c3)Oc3cc2cc(c3O[C@@H]2O[C@H](CO)[C@@H](O)[C@H](O)[C@H]2O[C@H]2C[C@](C)(N)[C@H](O)[C@H](C)O2)Oc2ccc(cc2Cl)[C@H]1O [Vancomycin]
Conditions	Bliss interaction score
[1]	0.0579
[2]	0.054
[3]	-0.0529
[4]	0.038

fitness, [5], one replicate
Conditions	first compound 0.007812 µg/mL	first compound 0.01562 µg/mL	first compound 0.03125 µg/mL
partner 0.125 µg/mL	0.835	0.803	0.699
partner 0.25 µg/mL	0.333	0.0993	0.126
partner 0.5 µg/mL	0.0664	0.0774	0.0781

fitness, [5]
Conditions	first compound 0.0625 µg/mL	first compound 0.07 µg/mL	first compound 0.125 µg/mL	first compound 0.14 µg/mL	first compound 0.25 µg/mL	first compound 0.28 µg/mL
partner 0.03125 µg/mL	0.652	–	0.381	–	0.149	–
partner 0.0625 µg/mL	0.577	–	0.321	–	0.116	–
partner 0.125 µg/mL	–	0.101	0.281	0.0727	0.106	0.0814
partner 0.25 µg/mL	–	0.0516	–	0.0525	–	0.0738
partner 0.5 µg/mL	–	0.0749	–	0.0887	–	0.0893
